Test results reported in ChEMBL document CHEMBL3808315, “Discovery of Pyrazolopyridones as a Novel Class of Gyrase B Inhibitors Using Structure Guided Design” (ACS Med Chem Lett, 2016).
Values after ≈ are worked out from the molar mass of the structure shown.

Tests used:
Staphylococcus aureus [1] = assay: Antibacterial activity against methicillin-susceptible Staphylococcus aureus 42 incubated for 18 to 24 hrs by broth microdilution assay; type: functional
DNA gyrase subunit B = DNA gyrase subunit B (Staphylococcus aureus, UniProt P0A0K8); assay: Inhibition of Staphylococcus aureus DNA gyraseB ATPase activity using linear pBR322 DNA substrate incubated for 30 mins by fluorescence polarization assay
Enterococcus faecium = assay: Antibacterial activity Enterococcus faecium ATCC 6569 incubated for 18 to 24 hrs by broth microdilution assay; type: functional
Staphylococcus aureus [2] = assay: Antibacterial activity against methicillin-resistant Staphylococcus aureus 1118 incubated for 18 to 24 hrs by broth microdilution assay; type: functional
Streptococcus pneumoniae = assay: Antibacterial activity Streptococcus pneumoniae ATCC 6303 incubated for 18 to 24 hrs by broth microdilution assay; type: functional
[3] = target: DNA topoisomerase 4 subunit B (Staphylococcus aureus, UniProt P0C1S7); assay: Inhibition of Staphylococcus aureus DNA parE ATPase activity incubated for 30 mins by fluorescence polarization assay
Staphylococcus aureus [4] = assay: Antibacterial activity against ciprofloxacin/methicillin-resistant Staphylococcus aureus 1721 incubated for 18 to 24 hrs by broth microdilution assay; type: functional

MIC (Staphylococcus aureus [1]) [mg/L] | IC50 (DNA gyrase subunit B) [µM] | Structure (SMILES) | also measured
0.5 (≈ 1.15 µM) | < 0.008 | CCCn1c(=O)ccc2c(-c3cnc(-c4ccc(CN5CCOCC5)nc4)s3)n[nH]c21 | 
1 (≈ 2.09 µM) | < 0.008 | CCCn1c(=O)ccc2c(-c3cnc(-c4ccc(C(=O)NCCN(CC)CC)nc4)s3)n[nH]c21 | 
4 (≈ 8.9 µM) | 0.01 | CCCn1c(=O)ccc2c(-c3cnc(-c4ccc(CN5CCN(C)CC5)nc4)s3)n[nH]c21 | 
2 (≈ 4.9 µM) | 0.008 | CCCn1c(=O)ccc2c(-c3cnc(-c4ccc(C(=O)N(C)C)nc4)s3)n[nH]c21 | 
> 32 | 0.27 | O=c1ccc2c(-c3cnc(-c4cccnc4)s3)n[nH]c2[nH]1 | 
> 32 | 3.35 | CCn1c(=O)c(C(=O)NC)cc2c(-c3cnc(-c4cccnc4)s3)n[nH]c21 | 
0.5 (≈ 1.26 µM) | 0.015 | CCCn1c(=O)ccc2c(-c3cnc(-c4ccc(C(=O)OC)nc4)s3)n[nH]c21 | 
> 32 | 0.202 | CCn1c(=O)c(CO)cc2c(-c3cnc(-c4cccnc4)s3)n[nH]c21 | 
> 32 | 0.279 | CCCn1c(=O)ccc2c(-c3cncs3)n[nH]c21 | 
0.25 (≈ 0.711 µM) | < 0.008 | CCCn1c(=O)ccc2c(-c3cnc(-c4ccc(C)nc4)s3)n[nH]c21 | 
0.5 (≈ 1.31 µM) | 0.015 | CCCn1c(=O)ccc2c(-c3cnc(-c4ccc(N(C)C)nc4)s3)n[nH]c21 | 
1 (≈ 2.64 µM) | 0.023 | CCCn1c(=O)ccc2c(-c3cnc(-c4ccc(C(C)C)nc4)s3)n[nH]c21 | 
4 (≈ 9.79 µM) | 0.013 | CCCn1c(=O)ccc2c(-c3nc(C(=O)N(C)C)c(-c4cccnc4)s3)n[nH]c21 | 
 | 3.25 | Cc1cc(=O)[nH]c2[nH]nc(-c3cnc(-c4cccnc4)s3)c12 | 
0.25 (≈ 0.68 µM) | < 0.008 | CCCn1c(=O)ccc2c(-c3cnc(-c4ccc(CO)nc4)s3)n[nH]c21 | 
0.25 (≈ 0.745 µM) | 0.004 | C=CCn1c(=O)ccc2c(-c3cnc(-c4cccnc4)s3)n[nH]c21 | 
2 (≈ 4.59 µM) | 0.008 | CCCn1c(=O)ccc2c(-c3cnc(-c4ccc(N5CCN(C)CC5)nc4)s3)n[nH]c21 | 
4 (≈ 11.9 µM) | 0.009 | CCCn1c(=O)ccc2c(-c3ncc(-c4cccnc4)s3)n[nH]c21 | 
> 32 | 0.192 | CCCn1c(=O)ccc2c(C3CCN(c4nc(C(=O)O)c(C)s4)CC3)n[nH]c21 | 
0.25 (≈ 0.632 µM) | 0.006 | CCCn1c(=O)ccc2c(-c3nc(C(=O)OC)c(-c4cccnc4)s3)n[nH]c21 | 
> 32 | 0.564 | O=c1ccc2c(-c3cnc(-c4cccnc4)s3)n[nH]c2n1CCO | 
4 (≈ 9.47 µM) | 0.009 | CCCn1c(=O)ccc2c(-c3cnc(-c4ccc(CN(CC)CC)nc4)s3)n[nH]c21 | 
 | 1.32 | O=c1cc(-c2ccccc2)c2c(-c3cnc(-c4cccnc4)s3)n[nH]c2[nH]1 | 
2 (≈ 5.93 µM) | 0.035 | CCn1c(=O)c(C)cc2c(-c3cnc(-c4cccnc4)s3)n[nH]c21 | 
2 (≈ 4.05 µM) | 0.013 | CCCn1c(=O)ccc2c(-c3cnc(-c4ccc(C(=O)NCCN5CCOCC5)nc4)s3)n[nH]c21 | 
> 32 | 0.051 | Cn1c(=O)ccc2c(-c3cnc(-c4cccnc4)s3)n[nH]c21 | 

Structure (SMILES) | MIC (Staphylococcus aureus [1]) [mg/L] | IC50 (DNA gyrase subunit B) [µM] | also measured
CCn1c(=O)ccc2c(-c3cnc(-c4cccnc4)s3)n[nH]c21 | 2 (≈ 6.18 µM) | 0.02 | MIC (Enterococcus faecium): 4 mg/L (≈ 12.4 µM); MIC (Staphylococcus aureus [2]): 2 mg/L (≈ 6.18 µM); MIC (Streptococcus pneumoniae): 4 mg/L (≈ 12.4 µM); IC50 [3]: 0.746 µM; MIC (Staphylococcus aureus [4]): 4 mg/L (≈ 12.4 µM)
CCCn1c(=O)ccc2c(-c3cnc(-c4cccnc4)s3)n[nH]c21 | 0.06 (≈ 0.178 µM) | 0.006 | MIC (Enterococcus faecium): 0.125 mg/L (≈ 0.37 µM); MIC (Staphylococcus aureus [2]): 0.06 mg/L (≈ 0.178 µM); MIC (Streptococcus pneumoniae): 0.25 mg/L (≈ 0.741 µM); IC50 [3]: 0.183 µM; MIC (Staphylococcus aureus [4]): 0.06 mg/L (≈ 0.178 µM)
COc1c(N2C[C@@H]3CCCN[C@@H]3C2)c(F)cc2c(=O)c(C(=O)O)cn(C3CC3)c12 [MOXIFLOXACIN] | 0.06 (≈ 0.149 µM) |  | 
